Measurements from patent US20160213657A1, “PHARMACEUTICAL COMPOSITION FOR TREATMENT AND/OR PREVENTION OF PULMONARY DISEASE” (UBE INDUSTRIES, LTD., priority 2013, published 2016).
Like-named read-outs stand apart in the source and are kept apart here.

Legend:
[1] = system: LPS-induced TNFα production of human peripheral blood mononuclear cells; assay: Test of inhibition of LPS-induced TNFα production using human peripheral blood mononuclear cells; format: cell-based; settings: read-out: IC50 value (nM) of TNFα production inhibitory action of human PBMC
Protocol: Test of Inhibition of LPS-Induced TNFα Production Using Human Peripheral Blood Mononuclear Cells
Peripheral blood collected in the presence of heparin from healthy subjects was diluted two-fold with PBS containing 2 (V/V) % FBS. Hemocyte separation solution (Ficoll Paque™, manufactured by GE Healthcare Science) was added to SepMate™-50 (manufactured by […] Technologies Inc.) followed by layering the diluted blood thereon. A peripheral blood mononuclear cell (hereinafter abbreviated as PBMC) layer was recovered by centrifuging for 10 minutes under conditions of 20° C. and 1200×g. The resulting PBMCs were further centrifuged and washed twice followed by suspending in RPMI1640 medium containing 1 (V/V) % FBS for use in the following test.
A test of inhibition of LPS-induced TNFα production was performed by partially modifying the method of Mary et al. (Journal of Pharmacology and Experimental Therapeutics, 284, 420 (1998)). 185 μL of PBMC suspension prepared to a final concentration of 5×10^5 cells/mL was added to a 96-well plate, subsequently 10 μL of RPMI1640 medium, containing 1 (V/V) % DMSO in which a test compound was dissolved, was added to each well (DMSO final concentration: 0.05 (V/V) %). RPMI1640 medium containing 1 (V/V) % DMSO was similarly added to a well to which test compounds had not been added. After incubating for 1 hour in a carbon dioxide gas incubator, 5 μL of RPMI1640 medium containing LPS (L2880-500MG, manufactured by Sigma) was added to each well (LPS final concentration: 100 ng/mL). 5 μL of RPMI1640 medium was added to a non-LPS stimulation well. After culturing for about 18 hours in a carbon dioxide gas incubator, the culture supernatant was recovered. The recovered culture supernatant was stored at −20° C. until measurement of TNFα content.
A sandwich ELISA kit (Quantikine DTA00c, manufactured by R&D Systems) was used to measure TNFα content. The TNFα content of each sample was calculated from a standard curve of E. coli-derived human recombinant TNF provided with the kit. TNFα production inhibition rate at each test compound concentration was calculated based on a value of 100% for the amount of TNFα produced by LPS in the case of only adding DMSO. The concentration of test compound that inhibited TNFα production by 50% was calculated as the IC50 value (nM) from the relationship between concentration of the added test compound and TNFα production inhibition rate of the test compound.

human EP2 receptor = human EP2 receptor (Homo sapiens, UniProt P43116); assay: Measurement of EP2 receptor binding action ([3H]prostaglandin E2 displacement)
Protocol: Measurement of EP2 Receptor Binding Action
The membrane fraction was collected on glass fiber filter paper (GF/B, manufactured by Whatman) using a cell harvester (M30R, manufactured by Brandel), and after washing with a buffer solution (10 mM MES-KOH (pH 6.0), 10 mM MgCl2), radioactivity was measured with a liquid scintillation analyzer (2000CA, manufactured by Packard).
Ki=IC50/(1+([^3H]prostaglandin E2 concentration/Kd))
Furthermore, the dissociation constant (Kd value) was calculated by Scatchard analysis.

[2] = system: neutrophil infiltration of the rat lung; assay: Inhibitory effect on neutrophil infiltration of rat lung (LPS intratracheal, BALF); format: in vivo; settings: SD rats; approx. 0.1 mg/Kg intratracheally 1 hour prior to LPS; BALF 4 hours after LPS
Protocol: Inhibitory Effect on Neutrophil Infiltration of Rat Lung
A test of inhibition of neutrophil infiltration of the rat lung was performed by partially modifying the method of Spond et al. (Pulmonary Pharmacology and Therapeutics, 14, 157 (2001)). 25 μL (approx. 4 μg/Kg) of physiological saline solution containing LPS (L2880-500MG, manufactured by Sigma) (concentration: 0.04 mg/mL) was administered intratracheally under isoflurane inhalation anesthesia into SD rats fasted for about 16 hours (males, 7-8 weeks old, body weights: 240 g to 270 g (average: approx. 250 g), supplied by Charles River Laboratories, Japan). A Microsprayer™ (IA-1C-M, manufactured by PennCentury) was used for intratracheal administration.
Dosing solutions of the test compounds were prepared by dissolving the test compounds in a 0.1 mol/L or 1 mol/L aqueous sodium hydroxide solution followed by adding medium and neutralizing (final test compound concentration: 1 mg/mL). PBS or phosphate buffer solution (20 mM, pH=7.4) was used for the medium. 25 μL (approx. 0.1 mg/Kg) of the test compound solution prepared in this manner was administered intratracheally in the same manner as LPS administration 1 hour prior to administration of LPS. Medium was administered to a control group. Furthermore, 6 animals were used in the test compound dosing groups and control group, respectively. […]
The number of white blood cells present in the BALF suspension was measured using a multiparameter automated hematology analyzer (KX-21, manufactured by Sysmex). […] Next, after staining the cells using the Diff-Quik staining kit (Cat. No. 16920, manufactured by Sysmex), the number of neutrophils present among 300 white blood cells was measured under a light microscope (BH-2, manufactured by Olympus) followed by calculating the ratio of neutrophils to white blood cells (NR=the number of neutrophils among 300 white blood cells/300). […]
The number of neutrophils present in the BALF cell suspension was measured using a multiparameter automated hematology analyzer (XT-2000iV, manufactured by Sysmex). […]

[3] = membrane fraction of HEK293 cells expressing human EP2 receptor, [3H]prostaglandin E2 10 nM, 30° C., 60 minutes, read-out: Ki value (nM) of EP2 receptor binding action

Sequence of human EP2 receptor (P43116 whole entry): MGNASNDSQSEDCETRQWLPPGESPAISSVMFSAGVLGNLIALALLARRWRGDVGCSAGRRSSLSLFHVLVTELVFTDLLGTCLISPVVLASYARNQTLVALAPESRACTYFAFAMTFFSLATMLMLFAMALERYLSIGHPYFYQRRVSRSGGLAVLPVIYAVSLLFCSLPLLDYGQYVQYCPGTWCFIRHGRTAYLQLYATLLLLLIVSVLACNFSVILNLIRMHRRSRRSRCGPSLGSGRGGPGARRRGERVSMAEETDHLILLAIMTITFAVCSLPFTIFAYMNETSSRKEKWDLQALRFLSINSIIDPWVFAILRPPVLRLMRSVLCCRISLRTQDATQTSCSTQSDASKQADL

SMILES	IC50 ([1]; LPS 100 ng/mL, culture about 18 hours, TNFα by ELISA) [nM]	Ki (human EP2 receptor; [3]) [nM]	IC50 ([1]; Homo sapiens, PBMC, 18 h) [nM]	Inhibition rate of pulmonary neutrophil infiltration [2] [%]	Ki (human EP2 receptor) [nM]
CCCc1cccc(-c2ccc(CN(Cc3cccc(NCC(=O)O)n3)S(=O)(=O)c3ccccn3)cc2)c1 [Comparative Example 1, {6-[(3′-Propylbiphenyl-4-ylmethyl)(pyridin-2-ylsulfonyl)aminomethyl]pyridin-2-ylamino}acetate, reference compound]	> 300	1.1	–	–	–
CC=Cc1cccc(-c2ccc(CN(Cc3cccc(NCC(=O)O)n3)S(=O)(=O)c3ccccn3)cc2)c1 [Example 2]	–	0.53	–	–	–
CC#Cc1cccc(-c2ccc(CN(Cc3cccc(NCC(=O)O)n3)S(=O)(=O)c3ccccn3)cc2)c1 [Example 4, (6-{[3′-(1-Propynyl)biphenyl-4-ylmethyl](pyridin-2-ylsulfonyl)aminomethyl}-pyridin-2-ylamino)acetic acid]	–	0.8	3.3	71	–
CC#Cc1cccc(-c2ccc(CN(Cc3cccc(NCC(=O)O)n3)S(=O)(=O)c3cccnc3)cc2)c1 [Example 6, (6-{[3′-(1-Propynyl)biphenyl-4-ylmethyl](pyridin-3-ylsulfonyl)aminomethyl}-pyridin-2-ylamino)acetic acid]	–	–	9.4	–	0.75
CCOc1cccc(-c2ccc(CN(Cc3cccc(NCC(=O)O)n3)S(=O)(=O)c3ccccn3)cc2)c1 [Example 7, {6-[(3′-Ethoxybiphenyl-4-ylmethyl)(pyridin-2-ylsulfonyl)aminomethyl]-pyridin-2-ylamino}acetic acid]	–	–	20	–	0.61
CCOc1cccc(-c2ccc(CN(Cc3cccc(NCC(=O)O)n3)S(=O)(=O)c3cccnc3)cc2)c1 [Example 9, {6-[(3′-Ethoxybiphenyl-4-ylmethyl)(pyridin-3-ylsulfonyl)aminomethyl]-pyridin-2-ylamino}acetic acid]	–	–	–	–	0.8
CCOc1cccc(-c2ccc(CN(Cc3cccc(NCC(=O)O)n3)S(=O)(=O)c3ccccc3)cc2)c1 [Example 10, {6-[(Benzenesulfonyl)(3′-ethoxybiphenyl-4-ylmethyl)aminomethyl]pyridin-2-ylamino}acetic acid]	–	–	18	–	0.97
CCOc1cccc(-c2ccc(CN(Cc3cccc(NCC(=O)O)n3)S(=O)(=O)c3cccs3)cc2)c1 [Example 11, {6-[(3′-Ethoxybiphenyl-4-ylmethyl)(thiophen-2-ylsulfonyl)aminomethyl]-pyridin-2-ylamino}acetic acid]	–	–	23	–	–
CCOc1cccc(-c2ccc(CN(Cc3cccc(NCC(=O)O)n3)S(=O)(=O)c3ccccn3)cc2)n1 [Example 12, (6-{[4-(6-Ethoxypyridin-2-yl)benzyl](pyridin-2-ylsulfonyl)aminomethyl}-pyridin-2-ylamino)acetic acid]	–	–	16	–	–
CC#Cc1cccc(-c2ccc(CN(Cc3cccc(NCC(=O)O)n3)S(=O)(=O)c3cccs3)cc2)c1 [Example 14, (6-{[3′-(1-Propynyl)biphenyl-4-ylmethyl](thiophen-2-ylsulfonyl)-aminomethyl}pyridin-2-ylamino)acetic acid]	–	0.9	13	65	–
CC#Cc1cccc(-c2ccc(CN(Cc3cccc(NCC(=O)O)n3)S(=O)(=O)c3ccccc3)cc2)c1 [Example 16, (6-{(Benzenesulfonyl)[3′-(1-propynyl)biphenyl-4-ylmethyl]aminomethyl}-pyridin-2-ylamino)acetic acid]	–	–	15	66	0.95
CC#Cc1cccc(-c2ccc(CN(Cc3cccc(NCC(=O)O)n3)S(=O)(=O)c3ccsc3)cc2)c1 [Example 18, (6-{[3′-(1-Propynyl)biphenyl-4-ylmethyl](thiophen-3-ylsulfonyl)-aminomethyl}pyridin-2-ylamino)acetic acid]	–	0.99	3.2	–	–
